From patent publication US20230348483A1, “PREPARATION METHOD FOR (S)-2-AMINO-3-(4-(2,3-DIMETHYLPYRIDIN-4-YL)PHENYL)METHYL PROPIONATE DIACID SALT” (Hangzhou Zhongmei Huadong Pharmaceutical Co., Ltd., priority 2020, published 2023) come the findings set out here.

Series [1] in a line: Stability test of salt forms at temperature 40° C. and humidity 75% (HPLC chemical purity, physical properties). Format: physicochemical. The settings on record: for Appearance / Hygroscopicity / Purity (%): 40° C./75% placement for 1 day; for Purity (%) / Initial purity: chemical purity by HPLC; for Initial purity: before placement. On the procedure:
Compare the properties of the desired salts of compound V, includes but not limits to as herein oxalate or phosphate, to hydrochloride. Conduct the stability test under the condition of temperature 40° C. and humidity 75%, measure the chemical purity by HPLC and observe the physical properties.

The nature of series [2]: Hygroscopicity and deterioration of compound IV as found by the researchers. Format: physicochemical. The settings on record: solid, storage and transport.

As for `COC(=O)[C@@H](N)Cc1ccc(-c2ccnc(C)c2C)cc1.O=C(O)C(=O)O.O=C(O)C(=O)O` [Phosphate, methyl (S)-2-amino-3-[4-(2,3-dimethylpyridin-4-yl)-phenyl]-propionate diacid salt], in series [1], the Appearance entry is on record as “White to light”, the Hygroscopicity result is listed as “Slight”, the “Purity (%)” value is 96.1% and the Initial purity is 98.5.
For the molecule `COC(=O)[C@@H](N)Cc1ccc(-c2ccnc(C)c2C)cc1.O=C(O)C(=O)O.O=C(O)C(=O)O` [Oxalate, methyl (S)-2-amino-3-[4-(2,3-dimethylpyridin-4-yl)-phenyl]-propionate diacid salt], in series [1], the Appearance entry is recorded as “White powder”, the Hygroscopicity result is on record as “Almost none”, the “Purity (%)” value amounted to 99.0% and the Initial purity was 99.1.
Take `COC(=O)[C@@H](N)Cc1ccc(-c2ccnc(C)c2C)cc1.Cl.Cl` [Hydrochloride, methyl (S)-2-amino-3-[4-(2,3-dimethylpyridin-4-yl)-phenyl]-propionate dihydrochloride]: in series [2], the “Deterioration (storage stability)” value is “easily to be deteriorated” and the Hygroscopicity result was “highly hygroscopic”. Further, in series [1], the Appearance entry is on record as “Yellow solid”, the Hygroscopicity entry is “Strong”, the “Purity (%)” value is on record as 87.5% and the Initial purity amounted to 95.1.
